Paper PMC11995724, “Antibiotic target discovery by integrated phenotypic and activity-based profiling of electrophilic fragments” (Cell chemical biology, 2025)

Test: in vitro
Conditions: human, hek293t cells

Compared with C=CC(=O)NCc1nncn1-c1ccccc1 [1-G07, N-[(4-phenyl-4H-1,2,4-triazol-3-yl)methyl]prop-2-enamide], C=CC(=O)NCc1nnc2ccccn12 [1-H19, N-({[1,2,4]triazolo[4,3-a]pyridin-3-yl}methyl)prop-2-enamide] is higher in viability at 48 h, 25 µM: 77.3% for the first, 182% for the second.

Going from C=CC(=O)N1CCCC1 [1-G08, 1-(pyrrolidin-1-yl)prop-2-en-1-one] to C=CC(=O)N1CCCC(C(=O)O)C1 (stereo not drawn) [1-G12, 1-(prop-2-enoyl)piperidine-3-carboxylic acid], the viability at 48 h, 25 µM falls from 70.2% to 60.4%.

Compared with C=CC(=O)N(Cc1cn(C2CCC2)nn1)c1ccc(F)cc1 [1-G09, N-[(1-cyclobutyl-1H-1,2,3-triazol-4-yl)methyl]-N-(4-fluorophenyl)prop-2-enamide], C=CC(=O)N(Cc1cccc2cccnc12)C1CCCN(CC)C1 (stereo not drawn) [1-H11, N-(1-ethylpiperidin-3-yl)-N-[(quinolin-8-yl)methyl]prop-2-enamide] is higher in viability at 48 h, 25 µM: 37.6% for the first, 55.3% for the second.

Going from C=CC(=O)Nc1cccc2ccccc12 [1-G10, N-(naphthalen-1-yl)prop-2-enamide] to C=CC(=O)Nc1conc1-c1ccccc1 [1-I09, N-(3-phenyl-1,2-oxazol-4-yl)prop-2-enamide], the viability at 48 h, 25 µM rises from 53.4% to 59.1%.

First: C=CC(=O)Nc1nc2cc(C(F)(F)F)ccc2n1Cc1ccco1 [1-G11, N-{1-[(furan-2-yl)methyl]-5-(trifluoromethyl)-1H-1,3-benzodiazol-2-yl}prop-2-enamide]
Second: C=CC(=O)NCc1cc(-c2cccc(OC)c2)no1 [1-I11, N-{[3-(3-methoxyphenyl)-1,2-oxazol-5-yl]methyl}prop-2-enamide]
The viability at 48 h, 25 µM of the first is lower: 72.5% for the first, 76.7% for the second.

Going from C=CC(=O)Nc1ccc2c(c1)N(C)CC2 [1-G13, N-(1-methyl-2,3-dihydro-1H-indol-6-yl)prop-2-enamide] to C=CC(=O)Nc1ccc2c(c1)OCCCO2 [1-G20, N-(3,4-dihydro-2H-1,5-benzodioxepin-7-yl)prop-2-enamide], the viability at 48 h, 25 µM rises from 67.7% to 115%.

Compared with C=CC(=O)Nc1cccc(C(=O)C(F)F)c1 [1-G14, N-[3-(2,2-difluoroacetyl)phenyl]prop-2-enamide], C=CC(=O)Nc1ccc(Cl)cc1F [1-I10, N-(4-chloro-2-fluorophenyl)prop-2-enamide] is lower in viability at 48 h, 25 µM: 50.4% for the first, 47.1% for the second.

Compared with C=CC(=O)N1CCN(S(C)(=O)=O)[C@H](C)C1 [1-G15, 1-[(3R)-4-methanesulfonyl-3-methylpiperazin-1-yl]prop-2-en-1-one], C=CC(=O)NC[C@H]1CCCN1S(C)(=O)=O [1-H07, N-{[(2R)-1-methanesulfonylpyrrolidin-2-yl]methyl}prop-2-enamide] is lower in viability at 48 h, 25 µM: 101% for the first, 99.1% for the second.

First: C=CC(=O)NCC1(C)CCS(=O)(=O)CC1 [1-G16, N-[(4-methyl-1,1-dioxo-1lambda6-thian-4-yl)methyl]prop-2-enamide]
Second: C=CC(=O)NC(CN1CCCS1(=O)=O)C1CC1 (stereo not drawn) [1-H10, N-[1-cyclopropyl-2-(1,1-dioxo-1lambda6,2-thiazolidin-2-yl)ethyl]prop-2-enamide]
The viability at 48 h, 25 µM of the first is lower: 83.1% for the first, 100% for the second.

Going from C=CC(=O)Nc1cnc(C2CCCC2)nc1 [1-G17, N-(2-cyclopentylpyrimidin-5-yl)prop-2-enamide] to C=CC(=O)Nc1cnn2cc(C)cnc12 [1-G19, N-{6-methylpyrazolo[1,5-a]pyrimidin-3-yl}prop-2-enamide], the viability at 48 h, 25 µM rises from 33% to 96.4%.

First: C=CC(=O)NCc1nc2c(s1)CCCC2 [1-G18, N-[(4,5,6,7-tetrahydro-1,3-benzothiazol-2-yl)methyl]prop-2-enamide]
Second: C=CC(=O)NCc1cccc(OC)n1 [1-H22, N-[(6-methoxypyridin-2-yl)methyl]prop-2-enamide]
The viability at 48 h, 25 µM of the first is higher: 95.8% for the first, 79.2% for the second.

Going from C=CC(=O)NCc1cn(C)c2ccccc12 [1-G21, N-[(1-methyl-1H-indol-3-yl)methyl]prop-2-enamide] to C=CC(=O)NC(=O)NCc1ccccc1 [1-I04, 1-benzyl-3-(prop-2-enoyl)urea], the viability at 48 h, 25 µM falls from 107% to 0.515%.

Compared with C=CC(=O)NC1CCc2nc(CC)nn2C1 (stereo not drawn) [1-G22, N-{2-ethyl-5H,6H,7H,8H-[1,2,4]triazolo[1,5-a]pyridin-6-yl}prop-2-enamide], C=CC(=O)NC1COC(C)C1 (stereo not drawn) [1-H17, N-(5-methyloxolan-3-yl)prop-2-enamide] is lower in viability at 48 h, 25 µM: 147% for the first, 106% for the second.

First: C=CC(=O)NC(C)(C)c1nc(-c2ccccc2F)c(C)s1 [1-H04, N-{2-[4-(2-fluorophenyl)-5-methyl-1,3-thiazol-2-yl]propan-2-yl}prop-2-enamide]
Second: C=CC(=O)NC1Cc2ccccc2C1=O (stereo not drawn) [1-H21, N-(1-oxo-2,3-dihydro-1H-inden-2-yl)prop-2-enamide]
The viability at 48 h, 25 µM of the first is lower: 73.5% for the first, 156% for the second.

First: C=CC(=O)NCC(=O)N1CCCO1 [1-H05, N-[2-(1,2-oxazolidin-2-yl)-2-oxoethyl]prop-2-enamide]
Second: C=CC(=O)NCC1CCOC1 (stereo not drawn) [1-H08, N-[(oxolan-3-yl)methyl]prop-2-enamide]
The viability at 48 h, 25 µM of the first is higher: 98.5% for the first, 69.4% for the second.

Going from C=CC(=O)N1CCC(C2CCOC2)C1 (stereo not drawn) [1-H06, 1-[3-(oxolan-3-yl)pyrrolidin-1-yl]prop-2-en-1-one] to C=CC(=O)N1CCN(CC2CCOC2)CC1 (stereo not drawn) [1-H18, 1-{4-[(oxolan-3-yl)methyl]piperazin-1-yl}prop-2-en-1-one], the viability at 48 h, 25 µM falls from 70.3% to 49.6%.

Going from C=CC(=O)N(Cc1cn(C)nc1CC)C1CCCCCC1 [1-H09, N-cycloheptyl-N-[(3-ethyl-1-methyl-1H-pyrazol-4-yl)methyl]prop-2-enamide] to C=CC(=O)N(Cc1noc2c1CCCC2)CC1CCCC1 [1-H13, N-(cyclopentylmethyl)-N-[(4,5,6,7-tetrahydro-1,2-benzoxazol-3-yl)methyl]prop-2-enamide], the viability at 48 h, 25 µM rises from 84.9% to 113%.

Going from C=CC(=O)N1CCN(C(=O)c2ccc(OC)c(OC)c2OC)CC1 [1-H12, 1-[4-(2,3,4-trimethoxybenzoyl)piperazin-1-yl]prop-2-en-1-one] to C=CC(=O)N1CCC(C(=O)NCc2ccccc2)CC1 [1-I05, N-benzyl-1-(prop-2-enoyl)piperidine-4-carboxamide], the viability at 48 h, 25 µM rises from 80% to 86.7%.

Going from C=CC(=O)NCC(C)Cn1nccc1C (stereo not drawn) [1-H14, N-[2-methyl-3-(5-methyl-1H-pyrazol-1-yl)propyl]prop-2-enamide] to C=CC(=O)NCc1ccnn1C [1-H20, N-[(1-methyl-1H-pyrazol-5-yl)methyl]prop-2-enamide], the viability at 48 h, 25 µM falls from 87.8% to 58%.

Going from C=CC(=O)N(Cc1cc2ccccn2n1)CC1(O)CCCCC1 [1-H15, N-[(1-hydroxycyclohexyl)methyl]-N-({pyrazolo[1,5-a]pyridin-2-yl}methyl)prop-2-enamide] to C=CC(=O)N(C)CCCn1c(=O)c(C)nc2ccccc21 [1-I08, N-methyl-N-[3-(3-methyl-2-oxo-1,2-dihydroquinoxalin-1-yl)propyl]prop-2-enamide], the viability at 48 h, 25 µM falls from 102% to 76.3%.

Going from C=CC(=O)Nc1cc(OC)cc(S(C)(=O)=O)c1 [1-H16, N-(3-methanesulfonyl-5-methoxyphenyl)prop-2-enamide] to C=CC(=O)NCc1cscn1 [1-I07, N-[(1,3-thiazol-4-yl)methyl]prop-2-enamide], the viability at 48 h, 25 µM falls from 84.1% to 69.5%.
